Results reported in the supplement of paper PMC11451515.

System: NOMO1
Experiment: cell viability relative to DMSO control; higher = less cytotoxic
Settings: 48 h
In short: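 Leukemia cells (NOMO1 or SEM, 500 cells/well; P12-Ichikawa, 1000 cells/well) were seeded in 5 μl in 1536-well plates after at least four passages of adaptation to each medium. They received library compounds in DMSO by pin dosing, 11 threefold points from 47 μM to 0.79 nM. Luminescence with CellTiter-Glo One was read after 48 h at 37°C. Viability is stated per plate relative to DMSO wells, with cell-free wells as background.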

[1] = HPLM + 10% dialyzed FBS, 0.000781 µM
[2] = HPLM + 10% dialyzed FBS, 0.00234 µM
[3] = HPLM + 10% dialyzed FBS, 0.00702 µM
[4] = HPLM + 10% dialyzed FBS, 0.0211 µM
[5] = HPLM + 10% dialyzed FBS, 0.0632 µM
[6] = HPLM + 10% dialyzed FBS, 0.19 µM
[7] = HPLM + 10% dialyzed FBS, 0.569 µM
[8] = HPLM + 10% dialyzed FBS, 1.71 µM
[9] = HPLM + 10% dialyzed FBS, 5.12 µM
[10] = HPLM + 10% dialyzed FBS, 15.4 µM
[11] = HPLM + 10% dialyzed FBS, 46.1 µM
[12] = RPMI 5 mM glucose + 10% FBS, 0.000781 µM
[13] = RPMI 5 mM glucose + 10% FBS, 0.00234 µM
[14] = RPMI 5 mM glucose + 10% FBS, 0.00702 µM
[15] = RPMI 5 mM glucose + 10% FBS, 0.0211 µM
[16] = RPMI 5 mM glucose + 10% FBS, 0.0632 µM
[17] = RPMI 5 mM glucose + 10% FBS, 0.19 µM
[18] = RPMI 5 mM glucose + 10% FBS, 0.569 µM
[19] = RPMI 5 mM glucose + 10% FBS, 1.71 µM
[20] = RPMI 5 mM glucose + 10% FBS, 5.12 µM
[21] = RPMI 5 mM glucose + 10% FBS, 15.4 µM
[22] = RPMI 5 mM glucose + 10% FBS, 46.1 µM
[23] = RPMI 5 mM glucose + 10% dialyzed FBS, 0.000781 µM
[24] = RPMI 5 mM glucose + 10% dialyzed FBS, 0.00234 µM
[25] = RPMI 5 mM glucose + 10% dialyzed FBS, 0.00702 µM
[26] = RPMI 5 mM glucose + 10% dialyzed FBS, 0.0211 µM
[27] = RPMI 5 mM glucose + 10% dialyzed FBS, 0.0632 µM
[28] = RPMI 5 mM glucose + 10% dialyzed FBS, 0.19 µM
[29] = RPMI 5 mM glucose + 10% dialyzed FBS, 0.569 µM
[30] = RPMI 5 mM glucose + 10% dialyzed FBS, 1.71 µM
[31] = RPMI 5 mM glucose + 10% dialyzed FBS, 5.12 µM
[32] = RPMI 5 mM glucose + 10% dialyzed FBS, 15.4 µM
[33] = RPMI 5 mM glucose + 10% dialyzed FBS, 46.1 µM

Compound	cell viability [1] [%]	cell viability [2] [%]	cell viability [3] [%]	cell viability [4] [%]	cell viability [5] [%]	cell viability [6] [%]	cell viability [7] [%]	cell viability [8] [%]	cell viability [9] [%]	cell viability [10] [%]	cell viability [11] [%]	cell viability [12] [%]	cell viability [13] [%]	cell viability [14] [%]	cell viability [15] [%]	cell viability [16] [%]	cell viability [17] [%]	cell viability [18] [%]	cell viability [19] [%]	cell viability [20] [%]	cell viability [21] [%]	cell viability [22] [%]	cell viability [23] [%]	cell viability [24] [%]	cell viability [25] [%]	cell viability [26] [%]	cell viability [27] [%]	cell viability [28] [%]	cell viability [29] [%]	cell viability [30] [%]	cell viability [31] [%]	cell viability [32] [%]	cell viability [33] [%]
CC[C@H]1CN2CCc3cc(OC)c(OC)cc3[C@@H]2C[C@@H]1C[C@H]1NCCc2cc(OC)c(OC)cc21	95.5	105	101	107	104	98.5	54.7	22.7	8.84	10.8	7.47	103	127	122	109	121	111	50.4	27	11.4	9.75	8.48	106	102	98.3	123	118	109	47.5	27.8	14.9	9.41	8.82
CC(C)(C)OC(=O)Nc1ccc(-c2cc(C(=O)NCCCCCCC(=O)NO)no2)cc1	88.5	89	84.4	89.8	98.3	104	104	99.4	68.7	13.7	4.88	86.7	80.1	81.1	84.3	85.3	88.6	99.4	80.8	67.1	11.8	4.55	86.3	82.8	89.2	88.2	99.3	92.1	101	72.9	73.8	13.1	4.05
CS[C@H]1SC[C@@H]2C(=O)N(C)[C@H](C(C)C)C(=O)OC[C@H](NC(=O)c3cnc4ccccc4n3)C(=O)N[C@H](C)C(=O)N(C)[C@H]1C(=O)N(C)[C@H](C(C)C)C(=O)OC[C@H](NC(=O)c1cnc3ccccc3n1)C(=O)N[C@H](C)C(=O)N2C	90.5	92.4	81	34	7.25	7.68	7.01	6.88	6.12	5.83	3.83	86.1	83	92.4	44.5	5.63	5.77	5.98	5.95	5.48	4.23	4.39	92.6	81.1	83.2	49.8	5.73	5.24	5.79	5.79	5.29	4	3.33
CCOCC(O)COc1ccc(NC(=O)CC[S+](C)C)cc1 (stereo not given)	91.1	84.9	106	98.4	93.1	92.4	110	107	97	107	98.5	77.9	87.1	86.7	86.7	87.3	82.1	89.7	80.8	91	94.3	84.2	82.1	81.8	78.1	96.5	90.6	90.7	86.3	84.4	95.3	80.1	85.9
CCN(CC)CCCC(C)Nc1nc(C)cc(Nc2ccc3nc(C)cc(N)c3c2)n1 (stereo not given)	79.6	105	124	125	108	125	119	129	102	111	114	96.3	111	110	113	123	116	124	110	120	108	111	106	108	114	111	122	115	120	107	115	94.6	103
Cc1ccc(-c2cc(C(F)(F)F)nn2-c2ccc([S+](N)(=O)[O-])cc2)cc1												115	122	110	126	126	114	115	112	112	128	103	121	119	121	118	107	110	117	121	104	109	92.7
O=C(O)Cc1cccc(OCCCN(Cc2cccc(C(F)(F)F)c2Cl)CC(c2ccccc2)c2ccccc2)c1	122	123	136	110	114	108	118	99.3	106	118	114																						
CC[C@@H]1C(=O)N(C)c2cnc(Nc3ccc(C(=O)NC4CCN(C)CC4)cc3OC)nc2N1C1CCCC1	125	115	124	118	45.9	43.7	57.4	46.6	36.9	21.5	4.78	117	112	116	117	68.9	28.6	24.5	27.1	22.9	14.3	5.11	107	121	113	117	53.9	30	32.6	39	30.9	21.8	10.4
CCCCc1nc2cc(/C=C/C(=O)NO)ccc2n1CCN(CC)CC	109	112	94.2	106	86.9	99.7	85.1	84.8	39.3	4.23	6.15	80.5	83.2	83.2	87.1	94.2	89.3	86.8	85.9	28.6	4.31	4.51	74.9	98.4	86.4	91.5	94.3	97.2	86.2	79.3	57.9	5.08	4.97
CCCCCN(CCC12CC3CC(CC(C3)C1)C2)C(=O)NCCCc1ccncc1	111	120	116	114	115	109	108	93.7	111	112	97.3	98.2	110	107	110	116	113	97.8	113	96.5	107	98.4	104	102	119	120	116	107	116	111	116	94.1	99.1
C[C@H](NCc1ccc(OCc2cccc(F)c2)cc1)C(N)=O	87.6	125	121	113	116	116	124	133	97.7	95.1	18.4	110	109	106	108	106	117	122	111	113	104	50.3	110	114	125	110	107	123	111	116	99.7	97.4	62.8
COc1cc2ncnc(Nc3cccc(Cl)c3)c2cc1OC	83	93.2	86.9	80.6	69.7	59	57	41.4	39.2	36	3.63	95.7	101	99.3	96.6	102	85.9	82.1	57.7	48.7	39.6	34.4	100	95	101	101	76.2	75.1	72.9	47.7	45.8	38.9	37.5
C=CC(=O)Nc1ccc2ncnc(Nc3ccc(OCc4cccc(F)c4)c(Cl)c3)c2c1	82.4	93.3	99.9	96.7	105	99.4	98.1	72.4	22.2	17.1	12.6	92.6	91.8	114	115	107	95.8	101	93.3	13.6	14.7	9.53	92.9	85.7	93.5	91.3	104	92.6	93	94	21.4	18.3	11.8
Clc1ccccc1C(c1ccccc1)(c1ccccc1)n1ccnc1	120	115	125	123	116	114	123	105	108	101	78.6	103	122	114	122	111	110	114	103	95	92.7	69.1	119	114	119	110	116	117	124	104	113	111	80.3
CC(C)CC(N(C)C)C1(c2ccc(Cl)cc2)CCC1 (stereo not given)	118	136	120	119	116	117	116	113	107	94.5	87	110	113	113	118	117	123	119	116	98.2	94.1	99	109	110	124	115	122	119	120	112	111	103	95.1
N#CC[C@H](C1CCCC1)n1cc(-c2ncnc3[nH]ccc23)cn1	117	106	103	91.3	105	107	85.1	85.8	61.4	21.2	15.7	94.3	84.2	101	78.9	82.7	79.1	87.1	78.1	91.3	43	14.8	97.1	102	93.2	66	108	93.8	88.7	89.9	79.9	61.2	41.2
